One block for each molecule: values may come before it.
How the values were obtained:
[1] = nuclear but not mitochondrial or cytosol fractions; cited from earlier work
[2] = target: T1, human thyroid hormone receptor (Homo sapiens, UniProt P10828); experiment: Receptor binding to in-vitro translated human thyroid hormone receptor (FIGS. 8-13)
T1 sequence (P10828 1-461): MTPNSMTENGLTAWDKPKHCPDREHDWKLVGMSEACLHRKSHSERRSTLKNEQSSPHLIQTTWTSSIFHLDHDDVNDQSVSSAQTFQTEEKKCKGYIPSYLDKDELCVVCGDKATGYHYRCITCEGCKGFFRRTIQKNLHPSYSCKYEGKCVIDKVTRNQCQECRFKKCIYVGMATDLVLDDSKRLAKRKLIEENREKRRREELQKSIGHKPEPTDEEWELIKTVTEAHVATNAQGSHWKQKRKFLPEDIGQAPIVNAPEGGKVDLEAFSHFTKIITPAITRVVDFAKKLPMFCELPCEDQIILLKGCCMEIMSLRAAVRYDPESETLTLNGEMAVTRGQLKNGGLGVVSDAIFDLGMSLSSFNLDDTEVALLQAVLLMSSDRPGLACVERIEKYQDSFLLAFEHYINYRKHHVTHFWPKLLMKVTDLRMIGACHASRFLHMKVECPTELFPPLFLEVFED
Text: In FIGS. 8-13, human thyroid hormone receptor was produced by in-vitro translation of RNA coding for the receptor protein. The RNA was synthesized enzymatically using a human thyroid receptor DNA clone as a template.

rGH mRNA in GC cells = details: 300 pM T3; Northern analysis; FIG. 7a
[3] = cited from earlier work
[4] = tested on: thyroid hormone receptor in nuclei of intact GC cells; assay type: cell-based, rat; details: for competition with labeled T3, in words: intact cells
thyroid hormone receptor = details: J. Clin. Invest., 83 (1989); cited from earlier work
[5] = cases of clinical hypothyroidism

Structure (SMILES): N[C@@H](Cc1cc(I)c(Oc2cc(I)c(O)c(I)c2)c(I)c1)C(=O)O [T4, thyroxine]
binding to cellular fractions, in words [1]: high-affinity, low capacity binding sites

Structure (SMILES): CCCCc1oc2ccccc2c1C(=O)c1cc(I)c(OCCN(CC)CC)c(I)c1 [amiodarone, 2-butyl-3-[3,5-diiodo-4-(β-diethylaminoethoxy)-benzoyl]benzofuran]
effect on induction of rGH mRNA (rGH mRNA in GC cells): blocked the induction of rGH mRNA | T4 and T3 serum levels in clinical hypothyroidism [3, 5]: normal or slightly decreased | pituitary thyroid receptor hormone binding [3, 5]: decreased pituitary thyroid receptor hormone binding | thyroid-stimulating hormone (TSH) levels [3, 5]: mildly elevated | thyroid side effects ([3]; chronic administration): both hyper- and hypothyroid-like side effects | effect on peripheral T4 monodeiodination ([3]; in vivo): inhibition of peripheral T4 monodeiodination | serum T4 and T3 levels ([3]; in vivo): changes in the concentrations of serum thyroxine (T4) and triiodothyronine (T3) levels | competition with labeled T3, in words [4]: competed with labeled T3 for binding to the thyroid hormone receptors | thyroid hormone antagonism, in words (thyroid hormone receptor): behaves as a competitive inhibitor of triiodothyronine (T3)

Structure (SMILES): N[C@@H](Cc1cc(I)c(Oc2ccc(O)c(I)c2)c(I)c1)C(=O)O [^125 I-T3]
maximum binding capacity ([4]; intact GC cells, normalized to DNA content): about 85 fmol/100 ug DNA

Structure (SMILES): N[C@@H](Cc1cc(I)c(Oc2ccc(O)c(I)c2)c(I)c1)C(=O)O [T3, triiodothyronine]
binding to cellular fractions, in words [1]: high-affinity, low capacity binding sites | competition with labeled T3, in words [4]: competed with labeled T3 for binding to the thyroid hormone receptors

The next lines start with the values.

binding to T3 (thyroid hormone) receptor, in words [2]: binds to the T3 receptor
Structure (SMILES): CCCCNC(Cc1cc(I)c(Oc2ccc(O)c(I)c2)c(I)c1)C(=O)O (stereo not drawn)

binding to T3 (thyroid hormone) receptor, in words [2]: zero binding
Structure (SMILES): CCN(CC)CCOc1c(I)cc(C(C)=O)cc1I

binding to T3 (thyroid hormone) receptor, in words [2]: good binding to T3 receptor
Structure (SMILES): CCN(CC)CCOc1c(I)cc(C(=O)c2c(C)oc3ccccc23)cc1I

binding to T3 (thyroid hormone) receptor, in words [2]: binds to the T3 receptors
Structure (SMILES): COc1ccc(C(=O)n2cc(CNC(Cc3cc(I)c(Oc4ccc(O)c(I)c4)c(I)c3)C(=O)O)c3cc(OC)ccc32)cc1 (stereo not drawn)

binding to T3 (thyroid hormone) receptor, in words [2]: binds weakly to the T3 receptor
Structure (SMILES): CCCCc1oc2ccccc2c1C(O)c1cc(I)c(OCCN(CC)CC)c(I)c1 (stereo not drawn)
